{
  "source": "patent US8575161B2",
  "about": "“Benzofurane, benzothiophene, benzothiazol derivatives as FXR modulators” (Merck Patent GmbH, priority 2008, dated 2013)",
  "target": "T1, human Farsenoid X Receptor ligand binding domain - GST fusion protein (GST-FXR LBD) (Homo sapiens, UniProt Q96RI1)",
  "T1 construct": "Human FXR-LBD (amino acid 248-476); made in house; host or cells: E. coli BL21",
  "T1 sequence (Q96RI1 248-476 isoform Q96RI1-1)": "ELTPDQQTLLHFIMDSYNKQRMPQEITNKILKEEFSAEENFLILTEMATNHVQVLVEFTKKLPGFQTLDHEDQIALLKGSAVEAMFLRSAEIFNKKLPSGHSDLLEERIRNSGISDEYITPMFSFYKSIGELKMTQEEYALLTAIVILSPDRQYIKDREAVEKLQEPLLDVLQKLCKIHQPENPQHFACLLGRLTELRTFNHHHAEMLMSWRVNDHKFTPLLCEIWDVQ",
  "experiment": "FXR-SRC-1 Cofactor Recruitment Assay (time-resolved fluorescence energy transfer)",
  "type": "biochemical",
  "conditions": "SRC-1 peptide recruitment, 1 hour at room temperature",
  "excerpt": "BIOLOGICAL EXPERIMENTS FXR-SRC-1 Cofactor Recruitment Assay\nGST-LBD is labelled with a europium chelate (donor) via a europium-tagged anti-GST antibody, and the co-activator peptide is labelled with allophycocyanin-APC (acceptor) via a streptavidin-biotin linkage.\nIn the presence of an agonist for the nuclear receptor, the peptide is recruited to the GST-LBD, bringing europium and allophycocyanin into close proximity to enable energy transfer from the europium chelate to the allophycocyanin. Upon excitation of the complex with light at 340 nm, excitation energy absorbed by the europium chelate is transmitted to the allophycocyanin moiety resulting in emission at 665 nm. […] The activity of a nuclear receptor agonist can be measured by determining the ability of a compound to bind the nuclear receptor in this test (EC50) and compare to the ability of reference compound to bind this same nuclear receptor. […]\nA mix without peptide (same than peptide mix were peptide was replaced by water) was also set-up and for each compound (each concentration tested) a basal fluorescence level was determined in order to detect self-fluorescent compounds. […]\nPlates were incubated 1 hour at room temperature and fluorescence was read on a time resolved mode on a Wallac/Perkin Elmer Victor2 counter.\nFor each compound concentration, fluorescent signal ratio: F665/F615×1000 was calculated. […]",
  "data": [
    {"smiles": "O=C(O)c1cc2c(Br)c(N3CCC(N(C(=O)C4CC4)c4ccc(Cl)cc4Cl)CC3)ccc2o1", "note": "[Example 165, 4-Bromo-5-{4-[cyclopropanecarbonyl-(2,4-dichloro-phenyl)-amino]-piperidin-1-yl}-benzofuran-2-carboxylic acid]", "values": [
      {"measurement": "EC50", "value": 106, "unit": "nM"}
    ]}
  ]
}
